Test results from PubChem BioAssay AID256 (DTP/NCI, 2004).
Inconclusive results and toxic doses are left out. The calls were made as follows: active = survival T/C of 150% or more; inactive = T/C below 125% in these data.

System: CD2F1 mice, L1210 leukemia ip, survival T/C
Test: NCI In Vivo Anticancer Drug Screen. Data for tumor model L1210 Leukemia (intraperitoneal) in CD2F1 (CDF1) mice
Conditions: higher = longer survival
Procedure, shortened: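 Vehicle-treated tumor-bearing mice served as controls (C) for compound-treated mice (T). Reported figure is T divided by C.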

[1] = endpoint: mean survival time, dose: 100.0 mg/kg/injection, schedule: Q04DX003 (ip), vehicle: saline with Tween-80
[2] = endpoint: mean survival time, dose: 200.0 mg/kg/injection, schedule: Q04DX003 (ip), vehicle: saline with Tween-80
[3] = endpoint: mean survival time, dose: 400.0 mg/kg/injection, schedule: Q04DX003 (ip), vehicle: saline with Tween-80
[4] = endpoint: mean survival time, dose: 50.0 mg/kg/injection, schedule: Q01DX009 (ip), vehicle: saline
[5] = endpoint: mean survival time, dose: 100.0 mg/kg/injection, schedule: Q01DX009 (ip), vehicle: saline
[6] = endpoint: mean survival time, dose: 100.0 mg/kg/injection, schedule: Q01DX009 (ip), vehicle: saline with Tween-80
[7] = endpoint: mean survival time, dose: 100.0 mg/kg/injection, schedule: Q04DX003 (ip), vehicle: saline
[8] = endpoint: mean survival time, dose: 200.0 mg/kg/injection, schedule: Q04DX003 (ip), vehicle: saline
[9] = endpoint: mean survival time, dose: 200.0 mg/kg/injection, schedule: Q01DX009 (ip), vehicle: saline with Tween-80
[10] = endpoint: mean survival time, dose: 400.0 mg/kg/injection, schedule: Q01DX009 (ip), vehicle: saline with Tween-80
[11] = endpoint: mean survival time, dose: 100.0 mg/kg/injection, schedule: Q01DX001 (ip), vehicle: saline
[12] = endpoint: mean survival time, dose: 200.0 mg/kg/injection, schedule: Q01DX001 (ip), vehicle: saline
[13] = endpoint: mean survival time, dose: 400.0 mg/kg/injection, schedule: Q01DX001 (ip), vehicle: saline
[14] = endpoint: mean survival time, dose: 100.0 mg/kg/injection, schedule: Q04DX003 (ip), vehicle: Klucel (hydroxypropylcellulose) (HPC)
[15] = endpoint: mean survival time, dose: 200.0 mg/kg/injection, schedule: Q04DX003 (ip), vehicle: Klucel (hydroxypropylcellulose) (HPC)

Measured: T/C

Nc1nc(Br)c2ccccc2c1-c1ccc([N+](=O)[O-])cc1
inactive: endpoint: mean survival time, dose: 50.0 mg/kg/injection, schedule: Q04DX003 (ip), vehicle: DMSO 98 % of control | endpoint: mean survival time, dose: 100.0 mg/kg/injection, schedule: Q04DX003 (ip), vehicle: DMSO 96 % of control | endpoint: mean survival time, dose: 200.0 mg/kg/injection, schedule: Q04DX003 (ip), vehicle: DMSO 95 % of control | endpoint: mean survival time, dose: 400.0 mg/kg/injection, schedule: Q04DX003 (ip), vehicle: DMSO 95 % of control

CCCCCCCCCCCCCCCCOc1ccc(S(=O)(=O)N(C)C)cc1[N+](=O)[O-]
inactive: [1] 90 % of control | [2] 96 % of control | [3] 90 % of control

ClCCOCCOc1ccc(C2CCCCC2)cc1
inactive: endpoint: mean survival time, dose: 100.0 mg/kg/injection, schedule: Q04DX003 (ip), vehicle: saline sonified 97 % of control | endpoint: mean survival time, dose: 200.0 mg/kg/injection, schedule: Q04DX003 (ip), vehicle: saline sonified 97 % of control | endpoint: mean survival time, dose: 400.0 mg/kg/injection, schedule: Q04DX003 (ip), vehicle: saline sonified 92 % of control

FC(F)(F)C(Cl)(c1ccc(Cl)cc1)c1ccc(Cl)cc1
inactive: endpoint: mean survival time, dose: 50.0 mg/kg/injection, schedule: Q04DX003 (sc), vehicle: olive oil, sesame oil, peanut oil 101 % of control | endpoint: mean survival time, dose: 100.0 mg/kg/injection, schedule: Q04DX003 (sc), vehicle: olive oil, sesame oil, peanut oil 108 % of control | endpoint: mean survival time, dose: 200.0 mg/kg/injection, schedule: Q04DX003 (sc), vehicle: olive oil, sesame oil, peanut oil 97 % of control | endpoint: mean survival time, dose: 400.0 mg/kg/injection, schedule: Q04DX003 (sc), vehicle: olive oil, sesame oil, peanut oil 101 % of control

CNC1(Cc2ccc(F)cc2)CCC1
inactive: endpoint: mean survival time, dose: 25.0 mg/kg/injection, schedule: Q01DX009 (ip), vehicle: saline 100 % of control | [4] 102 % of control | [5] 100 % of control

NC1=NC(c2ccc(Cl)cc2)N(c2ccc(S(N)(=O)=O)cc2)C(N)=N1 (stereo not given)
inactive: endpoint: mean survival time, dose: 25.0 mg/kg/injection, schedule: Q01DX009 (ip), vehicle: saline with Tween-80 100 % of control | endpoint: mean survival time, dose: 50.0 mg/kg/injection, schedule: Q01DX009 (ip), vehicle: saline with Tween-80 100 % of control | [6] 96 % of control

C1CCC(N=C(NC2CCCCC2)NC2CCCCC2)CC1
inactive: [1] 109 % of control | [2] 100 % of control

OC1(c2ccccc2)CN(Cc2ccccc2)CCO1 (stereo not given)
inactive: [4] 104 % of control | endpoint: mean survival time, dose: 50.0 mg/kg/injection, schedule: Q04DX003 (ip), vehicle: saline 93 % of control | [5] 102 % of control | [7] 101 % of control | endpoint: mean survival time, dose: 200.0 mg/kg/injection, schedule: Q01DX009 (ip), vehicle: saline 98 % of control | [8] 102 % of control

N#CCN(CC#N)CCN(CC#N)CC#N
inactive: [6] 92 % of control | [1] 97 % of control | [9] 93 % of control | [2] 97 % of control | [10] 104 % of control | [3] 97 % of control

CC1=CC(C)(C(Cl)Cl)C=CC1=O (stereo not given)
inactive: endpoint: mean survival time, dose: 75.0 mg/kg/injection, schedule: Q01DX009 (ip), vehicle: saline with Tween-80 101 % of control | [1] 102 % of control | endpoint: mean survival time, dose: 150.0 mg/kg/injection, schedule: Q01DX009 (ip), vehicle: saline with Tween-80 101 % of control | [2] 95 % of control | endpoint: mean survival time, dose: 300.0 mg/kg/injection, schedule: Q01DX009 (ip), vehicle: saline with Tween-80 98 % of control | [3] 93 % of control

COC(=O)c1ccccc1SSc1ccccc1C(=O)OC
inactive: [6] 93 % of control | [9] 98 % of control | [10] 93 % of control

NC(=O)CSc1ccccc1
inactive: endpoint: mean survival time, dose: 100.0 mg/kg/injection, schedule: Q01DX001 (ip), vehicle: other 101 % of control | endpoint: mean survival time, dose: 200.0 mg/kg/injection, schedule: Q01DX001 (ip), vehicle: other 101 % of control | endpoint: mean survival time, dose: 400.0 mg/kg/injection, schedule: Q01DX001 (ip), vehicle: other 107 % of control

CCOc1ccccc1C(=O)OC(CN(CC)CC)c1ccccc1 (stereo not given)
inactive: endpoint: mean survival time, dose: 100.0 mg/kg/injection, schedule: Q04DX002 (ip), vehicle: saline 95 % of control | endpoint: mean survival time, dose: 200.0 mg/kg/injection, schedule: Q04DX002 (ip), vehicle: saline 95 % of control

COc1cc2c(cc1OC)[C@@H]1C(=O)c3ccc4c(c3O[C@@H]1CO2)C[C@H](C(C)C)O4
inactive: endpoint: median survival time, dose: 6.25 mg/kg/injection, schedule: Q01DX005 (ip), vehicle: Klucel (hydroxypropylcellulose) (HPC) 107 % of control | endpoint: median survival time, dose: 12.5 mg/kg/injection, schedule: Q01DX005 (ip), vehicle: Klucel (hydroxypropylcellulose) (HPC) 115 % of control | endpoint: median survival time, dose: 18.0 mg/kg/injection, schedule: Q01DX005 (ip), vehicle: Klucel (hydroxypropylcellulose) (HPC) 113 % of control | endpoint: median survival time, dose: 25.0 mg/kg/injection, schedule: Q01DX005 (ip), vehicle: Klucel (hydroxypropylcellulose) (HPC) 115 % of control | endpoint: median survival time, dose: 30.0 mg/kg/injection, schedule: Q01DX005 (ip), vehicle: Klucel (hydroxypropylcellulose) (HPC) 118 % of control | endpoint: median survival time, dose: 100.0 mg/kg/injection, schedule: Q01DX005 (ip), vehicle: Klucel (hydroxypropylcellulose) (HPC) 100 % of control

CCCCCC(=O)/C=C/Sc1n[nH]c(=O)[nH]c1=O
inactive: endpoint: mean survival time, dose: 12.5 mg/kg/injection, schedule: Q01DX005 (ip), vehicle: distilled water + Tween-80 96 % of control | endpoint: mean survival time, dose: 25.0 mg/kg/injection, schedule: Q01DX005 (ip), vehicle: distilled water + Tween-80 100 % of control | endpoint: mean survival time, dose: 50.0 mg/kg/injection, schedule: Q01DX005 (ip), vehicle: distilled water + Tween-80 104 % of control

O=S1(=O)CCC2C1C1(Cl)C(Cl)=C(Cl)C2(Cl)C1(Cl)Cl (stereo not given)
inactive: endpoint: mean survival time, dose: 12.5 mg/kg/injection, schedule: Q01DX009 (ip), vehicle: saline sonified 104 % of control | endpoint: mean survival time, dose: 12.5 mg/kg/injection, schedule: Q04DX003 (ip), vehicle: saline with Tween-80 103 % of control | endpoint: mean survival time, dose: 25.0 mg/kg/injection, schedule: Q01DX009 (ip), vehicle: saline sonified 103 % of control | endpoint: mean survival time, dose: 25.0 mg/kg/injection, schedule: Q04DX003 (ip), vehicle: saline with Tween-80 97 % of control | endpoint: mean survival time, dose: 50.0 mg/kg/injection, schedule: Q04DX003 (ip), vehicle: saline with Tween-80 98 % of control

CC1(C)OCC(C2OC3OC(C)(C)OC3C2O)O1 (stereo not given)
inactive: [11] 105 % of control | [1] 100 % of control | [7] 97 % of control | [12] 103 % of control | [2] 95 % of control | [8] 96 % of control | [13] 103 % of control | [3] 103 % of control | endpoint: mean survival time, dose: 400.0 mg/kg/injection, schedule: Q04DX003 (ip), vehicle: saline 100 % of control

CCCCCCCCC1SC1CCCCCCCCOC(=O)CCCCCCCC1SC1CCCCCCCC (stereo not given)
inactive: [14] 95 % of control | [15] 93 % of control | endpoint: mean survival time, dose: 400.0 mg/kg/injection, schedule: Q04DX003 (ip), vehicle: Klucel (hydroxypropylcellulose) (HPC) 102 % of control

COc1ccc(CCNC(=O)Cc2cc(OC)c(OC)cc2[N+](=O)[O-])cc1OC
inactive: [11] 94 % of control | [12] 97 % of control | [13] 94 % of control

O=c1[nH]c2ccccc2nc1C(Cl)Cl
inactive: endpoint: mean survival time, dose: 25.0 mg/kg/injection, schedule: Q01DX009 (ip), vehicle: Klucel (hydroxypropylcellulose) (HPC) 105 % of control | endpoint: mean survival time, dose: 50.0 mg/kg/injection, schedule: Q01DX009 (ip), vehicle: Klucel (hydroxypropylcellulose) (HPC) 100 % of control | endpoint: mean survival time, dose: 50.0 mg/kg/injection, schedule: Q04DX003 (ip), vehicle: Klucel (hydroxypropylcellulose) (HPC) 114 % of control | endpoint: mean survival time, dose: 100.0 mg/kg/injection, schedule: Q01DX009 (ip), vehicle: Klucel (hydroxypropylcellulose) (HPC) 116 % of control | [14] 105 % of control | [15] 105 % of control | endpoint: median survival time, dose: 50.0 mg/kg/injection, schedule: Q04DX003 (ip), vehicle: Klucel (hydroxypropylcellulose) (HPC) 107 % of control | endpoint: median survival time, dose: 100.0 mg/kg/injection, schedule: Q04DX003 (ip), vehicle: Klucel (hydroxypropylcellulose) (HPC) 104 % of control | endpoint: median survival time, dose: 200.0 mg/kg/injection, schedule: Q04DX003 (ip), vehicle: Klucel (hydroxypropylcellulose) (HPC) 117 % of control

O=C(CCN1CC1)Nc1ccc(NC(=O)CCN2CC2)cc1
inactive: endpoint: mean survival time, dose: 5.0 mg/kg/injection, schedule: Q04DX003 (ip), vehicle: Klucel (hydroxypropylcellulose) (HPC) 106 % of control | endpoint: mean survival time, dose: 80.0 mg/kg/injection, schedule: Q04DX003 (ip), vehicle: Klucel (hydroxypropylcellulose) (HPC) 115 % of control

OC1C=CC(O)C1 (stereo not given)
inactive: endpoint: mean survival time, dose: 75.0 mg/kg/injection, schedule: Q01DX001 (ip), vehicle: saline 97 % of control | endpoint: mean survival time, dose: 150.0 mg/kg/injection, schedule: Q01DX001 (ip), vehicle: saline 101 % of control
